Laboratory results from PubChem BioAssay AID2060885 (Molecular Pharmacology Branch, DTP, NCI, 2025).

System: NCI-H23 complex spheroids with HUVEC/MSC, viability
Assay: Anticancer human tumor NCI-H23 cell line growth inhibition [RAS];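 also: spheroids exposed to compound for 7 days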;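 as to viability, T/C: 100% = DMSO vehicle control viability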
Details: for IC50: curve of first compound; for viability, T/C: stronger effect = lower value
Procedure, shortened: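 Tumour cells grown as complex spheroids with HUVEC endothelial cells and mesenchymal stem cells, treated with RAS pathway inhibitor combinations. Each agent spans half-log steps from near clinical Cmax, or 10 microM where Cmax is unknown.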

[1] = second compound 0.000949 µM, first compound 0.0316 µM
[2] = second compound 0.000949 µM, first compound 0.1 µM
[3] = second compound 0.000949 µM, first compound 0.316 µM
[4] = second compound 0.000949 µM, first compound 1 µM
[5] = second compound 0.003 µM, first compound 0.0316 µM
[6] = second compound 0.003 µM, first compound 0.1 µM
[7] = second compound 0.003 µM, first compound 0.316 µM
[8] = second compound 0.003 µM, first compound 1 µM
[9] = second compound 0.00949 µM, first compound 0.0316 µM
[10] = second compound 0.00949 µM, first compound 0.1 µM
[11] = second compound 0.00949 µM, first compound 0.316 µM
[12] = second compound 0.00949 µM, first compound 1 µM
[13] = second compound 0.03 µM, first compound 0.0316 µM
[14] = second compound 0.03 µM, first compound 0.1 µM
[15] = second compound 0.03 µM, first compound 0.316 µM
[16] = second compound 0.03 µM, first compound 1 µM
[17] = second compound 0.0949 µM, first compound 0.0316 µM
[18] = second compound 0.0949 µM, first compound 0.1 µM
[19] = second compound 0.0949 µM, first compound 0.316 µM
[20] = second compound 0.0949 µM, first compound 1 µM
[21] = second compound 0.3 µM, first compound 0.0316 µM
[22] = second compound 0.3 µM, first compound 0.1 µM
[23] = second compound 0.3 µM, first compound 0.316 µM
[24] = second compound 0.3 µM, first compound 1 µM

SMILES: CCN1CCN(Cc2ccc(Nc3ncc(F)c(-c4cc(F)c5nc(C)n(C(C)C)c5c4)n3)nc2)CC1 + CCn1c(-c2cccnc2C(C)OC)c2c3cc(ccc31)N1CCOC(CC(NC(=O)C(C(C)C)N(C)C(=O)C3(F)CCN(C(=O)C#CC(C)(C)N(C)C)CC3)C(=O)N3CCCC(N3)C(=O)OCC(C)(C)C2)C1
- IC50 (second compound 0.000949 µM): < 3.16 nM
- IC50 (second compound 0.003 µM): < 3.16 nM
- IC50 (second compound 0.00949 µM): < 3.16 nM
- IC50 (second compound 0.03 µM): < 3.16 nM
- IC50 (second compound 0.0949 µM): < 3.16 nM
- IC50 (second compound 0.3 µM): < 3.16 nM
- viability, T/C (second compound 0.000949 µM, first compound 0.00316 µM): 27.6%
- viability, T/C (second compound 0.000949 µM, first compound 0.01 µM): 26.4%
- viability, T/C [1]: 14%
- viability, T/C [2]: 15.9%
- viability, T/C [3]: 14.6%
- viability, T/C [4]: 10.6%
- viability, T/C (second compound 0.003 µM, first compound 0.00316 µM): 28.6%
- viability, T/C (second compound 0.003 µM, first compound 0.01 µM): 20.8%
- viability, T/C [5]: 16.3%
- viability, T/C [6]: 15%
- viability, T/C [7]: 12.9%
- viability, T/C [8]: 10.8%
- viability, T/C (second compound 0.00949 µM, first compound 0.00316 µM): 26.9%
- viability, T/C (second compound 0.00949 µM, first compound 0.01 µM): 21.9%
- viability, T/C [9]: 16%
- viability, T/C [10]: 14.2%
- viability, T/C [11]: 12.3%
- viability, T/C [12]: 11.5%
- viability, T/C (second compound 0.03 µM, first compound 0.00316 µM): 30.6%
- viability, T/C (second compound 0.03 µM, first compound 0.01 µM): 21.5%
- viability, T/C [13]: 18%
- viability, T/C [14]: 12.5%
- viability, T/C [15]: 11.2%
- viability, T/C [16]: 13.2%
- viability, T/C (second compound 0.0949 µM, first compound 0.00316 µM): 23.4%
- viability, T/C (second compound 0.0949 µM, first compound 0.01 µM): 22.1%
- viability, T/C [17]: 15.8%
- viability, T/C [18]: 13.2%
- viability, T/C [19]: 10.2%
- viability, T/C [20]: 14.9%
- viability, T/C (second compound 0.3 µM, first compound 0.00316 µM): 22.2%
- viability, T/C (second compound 0.3 µM, first compound 0.01 µM): 19.3%
- viability, T/C [21]: 14.2%
- viability, T/C [22]: 12.1%
- viability, T/C [23]: 12%
- viability, T/C [24]: 14.2%

SMILES: C[C@@H](NC(=O)c1ncnc(N)c1Cl)c1ncc(C(=O)Nc2cc(C(F)(F)F)c(Cl)cn2)s1 + CCn1c(-c2cccnc2C(C)OC)c2c3cc(ccc31)N1CCOC(CC(NC(=O)C(C(C)C)N(C)C(=O)C3(F)CCN(C(=O)C#CC(C)(C)N(C)C)CC3)C(=O)N3CCCC(N3)C(=O)OCC(C)(C)C2)C1
- IC50 (second compound 0.000949 µM): < 31.6 nM
- IC50 (second compound 0.003 µM): < 31.6 nM
- IC50 (second compound 0.00949 µM): < 31.6 nM
- IC50 (second compound 0.03 µM): < 31.6 nM
- IC50 (second compound 0.0949 µM): < 31.6 nM
- IC50 (second compound 0.3 µM): < 31.6 nM
- viability, T/C [1]: 36.4%
- viability, T/C [2]: 32.5%
- viability, T/C [3]: 24.2%
- viability, T/C [4]: 34.2%
- viability, T/C (second compound 0.000949 µM, first compound 3.16 µM): 32.5%
- viability, T/C (second compound 0.000949 µM, first compound 10 µM): 25.4%
- viability, T/C [5]: 33%
- viability, T/C [6]: 31.1%
- viability, T/C [7]: 29.7%
- viability, T/C [8]: 33.3%
- viability, T/C (second compound 0.003 µM, first compound 3.16 µM): 31.2%
- viability, T/C (second compound 0.003 µM, first compound 10 µM): 25.3%
- viability, T/C [9]: 32.8%
- viability, T/C [10]: 27.5%
- viability, T/C [11]: 30.9%
- viability, T/C [12]: 30.9%
- viability, T/C (second compound 0.00949 µM, first compound 3.16 µM): 30.8%
- viability, T/C (second compound 0.00949 µM, first compound 10 µM): 24.5%
- viability, T/C [13]: 30.7%
- viability, T/C [14]: 30.1%
- viability, T/C [15]: 28.1%
- viability, T/C [16]: 29.3%
- viability, T/C (second compound 0.03 µM, first compound 3.16 µM): 26.9%
- viability, T/C (second compound 0.03 µM, first compound 10 µM): 27.9%
- viability, T/C [17]: 25.8%
- viability, T/C [18]: 29.3%
- viability, T/C [19]: 31.6%
- viability, T/C [20]: 28.6%
- viability, T/C (second compound 0.0949 µM, first compound 3.16 µM): 23.6%
- viability, T/C (second compound 0.0949 µM, first compound 10 µM): 28.4%
- viability, T/C [21]: 27.3%
- viability, T/C [22]: 27.4%
- viability, T/C [23]: 31%
- viability, T/C [24]: 23.1%
- viability, T/C (second compound 0.3 µM, first compound 3.16 µM): 26.3%
- viability, T/C (second compound 0.3 µM, first compound 10 µM): 27.4%
